Assay results reported in patent publication US20240285497A1, “METHOD FOR EVALUATING AN ABILITY OF A TEST SAMPLE TO TRIGGER A FOREIGN BODY REACTION IN THE SKIN, A METHOD FOR SCREENING A SUBSTANCE HAVING AN ABILITY TO INHIBIT A FOREIGN BODY REACTION IN THE SKIN, AND AN AGENT FOR INHIBITING A FOREIGN BODY REACTION IN THE SKIN” (priority 2021, published 2024).

Tests used:
[1] = test system: xenobiotic responsive element (XRE); test: Evaluation of ability to trigger a foreign body reaction using XRE-NLuc::HaCaT reporter cells (NLuc luminescence per viable cell); assay type: cell-based, human
Procedure: First, XRE-NLuc::HaCaT cells were suspended in a DMEM medium at the density of 1×10^5 cell/mL, and 100 μL of the thus obtained suspension was added to each well of white 96 well plates (Thermo Fisher Scientific, MA, U.S.A.; Catalogue No.: 136102) so that the number of the cells in each well was 10,000 cells/well. In accordance with a conventional method, the cells were incubated at 37° C., 5% CO2 for 24 hours. Thereafter, the DMEM medium was removed, and 100 μL of a new DMEM medium containing FICZ (6-Formylindolo[3,2-b]carbazole; CAS RN: 172922-91-7) as a test sample at a predetermined concentration was added, followed by further incubation for 24 hours at 37° C., 5% CO2. FICZ is known as a substance that triggers a foreign body reaction in which XRE is involved. Meanwhile, negative controls were prepared by adding 100 μL of a DMEM medium containing no FICZ instead of the DMEM medium containing FICZ, which were also incubated for 24 hours at 37° C., 5% CO2.
After the above-described incubation for 24 hours, the number of cells in each well was counted by a colorimetric method based on the degradation of tetrazolium salt (WST-1) by mitochondrial dehydrogenase in viable cells. Specifically, 3 μL of Premix WST-1 (Product Name “Premix WST-1 Cell Proliferation Assay System”; Takara Bio Inc., Shiga, Japan; Catalogue No.: MK400) was added to each well of 96 well plates, and then the cells were cultured for 1 hour at 37° C., 5% CO2. Thereafter, 93 μL of cell culture supernatant was removed from each well to measure the absorbance of the supernatant in each well. The removed supernatants were transferred to transparent 96 well plates, and then the absorbance at 450 nm (A450) and, as a reference wavelength, the absorbance at 670 nm (A670) were measured using iMark microplate reader (Bio-Rad; Catalogue No.: 168-1130JA). A value (A450-A670) was obtained by subtracting the absorbance at 670 nm (A670) from the absorbance at 450 nm (A450). The relative viable cell count (%) was expressed as a relative value with the value (A450-A670) obtained for the negative control as 100%.
Meanwhile, the expression level of the reporter protein was measured using samples left on the white 96-well plates after removing the supernatants for the viable cell count measurement. Briefly, 7 μL of Nano-Glo Luciferase Assay System (Promega; Catalogue No.: N110) was added to each well of the white 96-well plate. After 3 mins, the luminescence intensity obtained from the reporter protein produced by XRE-NLuc::HaCaT cells in each well was measured using GloMax Navigator Microplate Luminometer (Promega; Catalogue No.: GM2000). The obtained luminescence intensities were divided by the relative viable cell counts obtained by the above-described colorimetric method to obtain the expression level of the reporter protein (luminescence intensity) per unit number of viable cells.
In FIG. 3, the luminescence intensity per unit number of viable cells obtained from XRE-NLuc::HaCaT cells incubated with each of the DMEM medium containing FICZ at different concentrations was shown as a relative value, with the luminescence intensity per unit number of viable cells obtained for the negative control set to 1. […] In the figure, “*” and “**” indicate statistically significant differences (p<0.05 and p<0.01, respectively) from the negative control (“FICZ Concentration 0 nM” in FIG. 3).
The ability of each test sample to trigger a foreign body reaction was evaluated using XRE-NLuc::HaCaT cells in the same manner as in Experiment 1-2, except that I3C (Indole-3-carbinol, CAS RN: 700-06-1), ITE (2-(1′H-indole-3′-carbonyl)-thiazole-4-carboxylic acid methyl ester, CAS RN: 448906-42-1), and Indirubin (CAS RN: 479-41-4) were used instead of FICZ as test samples and the amount of each test sample added to the DMEM medium was appropriately changed.

[2] = test system: xenobiotic responsive element (XRE); test: Screening: inhibition of FICZ-triggered reporter protein expression in XRE-NLuc::HaCaT cells; assay type: cell-based, human; conditions: FICZ 5,000 nM, 24 hours
Procedure: First, in the same manner as in Experiment 1-2, XRE-NLuc::HaCaT cells were suspended in a DMEM medium at the density of 1×10^5 cell/mL, and 100 μL of the thus obtained suspension was added to each well of white 96-well plates (Thermo Fisher Scientific, MA, U.S.A.; Catalogue No.: 136102) so that a number of the cells in each well was 10,000 cells/well. In accordance with the conventional method, the cells were incubated for 24 hours at 37° C. and 5% CO2. Thereafter, the DMEM medium was removed, and 100 μL of a new DMEM medium containing […] of FICZ, which was confirmed to activate the expression of the reporter protein in Experiment 1-2, and a candidate substance at a predetermined concentration. Meanwhile, reference samples were also prepared by adding 100 μL of a DMEM medium containing 5,000 nM of FICZ but not containing candidate substances. In this experiment, 5-hydroxy-4-phenyl-2(5H)butenolide (hereinafter also referred to as “Fraglide-1” or “FG1”) and, as a positive control, cinnamaldehyde, which is known to have an effect of inhibiting a foreign body reaction in which a xenobiotic responsive element (XRE) is involved, were used as test substances. After incubation for 24 hours at 37° C. and 5% CO2, the expression level of the reporter protein (luminescence intensity) and the viable cell count were measured in accordance with the method described in Experiment 1-2, and the expression of the reporter protein per unit number of viable cells was obtained. The inhibition rate (Inhibition (%)) of the expression of the reporter protein exerted by each candidate substance was calculated in accordance with the following formula.
In the above formula, (Reporter Expression)FICZ indicates the expression of the reporter protein per unit number of viable cells obtained from the reference samples: i.e., the cells incubated in the medium containing 5,000 nM of FICZ but not containing candidate substances. Meanwhile, (Reporter Expression)FICZ+TEST SAMPLE indicates the expression of the reporter protein per unit number of viable cells obtained from the cells incubated in the medium containing 5,000 nM of FICZ and a candidate substance. The results shown in FIG. 6 were the mean obtained from three independent experiments. The error bars represent the standard error (SE).

Molecule | luminescence intensity (reporter protein expression) per unit number of viable cells relative to negative control ([1]; 4 nM FICZ, 24 hours, XRE-NLuc::HaCaT cells) | luminescence intensity from XRE-NLuc::HaCaT cells, dependence on concentration ([1]; FICZ at different concentrations, 24 hours) | EC50 ([1]; XRE-NLuc::HaCaT cells, reporter protein expression) [nM] | Present Experiment Maximum Effective concentration Max. Induction ([1]; XRE-NLuc::HaCaT cells, concentration at which reporter expression was maximized) [µM] | Inhibition (%) of expression of the reporter protein triggered by FICZ ([2]; 12.5 μM test substance) [%] | Inhibition (%) of expression of the reporter protein triggered by FICZ ([2]; 25 μM test substance) [%] | Inhibition (%) of expression of the reporter protein triggered by FICZ ([2]; 50 μM test substance) [%]
6-formylindolo[3,2-b] carbazole [FICZ] | about three times higher | increased along with the concentration of FICZ | 12 | 0.5 |  |  | 
O=C1C=C(c2ccccc2)C(O)O1 (stereo not shown) [Fraglide-1, 5-hydroxy-4-phenyl-2(5H)butenolide] |  |  |  |  | 58 | 68 | 83
